# In ChEMBL document CHEMBL2057206, “Symmetrical approach of spiro-pyrazolidinediones as acetyl-CoA carboxylase inhibitors” (Bioorg Med Chem Lett, 2012):
# Activity calls are given as the source filed them. The rule behind the calls is not given here.
# Biological target: Acetyl-CoA carboxylase 2 (Homo sapiens, UniProt O00763)
# Assay: Inhibition of human ACC2 using acetyl-coA as substrate incubated for 60 mins prior to substrate addition measured after 20 mins by malachite green assay
# Conditions: not given
# Acetyl-CoA carboxylase 2, sequence (O00763 whole entry): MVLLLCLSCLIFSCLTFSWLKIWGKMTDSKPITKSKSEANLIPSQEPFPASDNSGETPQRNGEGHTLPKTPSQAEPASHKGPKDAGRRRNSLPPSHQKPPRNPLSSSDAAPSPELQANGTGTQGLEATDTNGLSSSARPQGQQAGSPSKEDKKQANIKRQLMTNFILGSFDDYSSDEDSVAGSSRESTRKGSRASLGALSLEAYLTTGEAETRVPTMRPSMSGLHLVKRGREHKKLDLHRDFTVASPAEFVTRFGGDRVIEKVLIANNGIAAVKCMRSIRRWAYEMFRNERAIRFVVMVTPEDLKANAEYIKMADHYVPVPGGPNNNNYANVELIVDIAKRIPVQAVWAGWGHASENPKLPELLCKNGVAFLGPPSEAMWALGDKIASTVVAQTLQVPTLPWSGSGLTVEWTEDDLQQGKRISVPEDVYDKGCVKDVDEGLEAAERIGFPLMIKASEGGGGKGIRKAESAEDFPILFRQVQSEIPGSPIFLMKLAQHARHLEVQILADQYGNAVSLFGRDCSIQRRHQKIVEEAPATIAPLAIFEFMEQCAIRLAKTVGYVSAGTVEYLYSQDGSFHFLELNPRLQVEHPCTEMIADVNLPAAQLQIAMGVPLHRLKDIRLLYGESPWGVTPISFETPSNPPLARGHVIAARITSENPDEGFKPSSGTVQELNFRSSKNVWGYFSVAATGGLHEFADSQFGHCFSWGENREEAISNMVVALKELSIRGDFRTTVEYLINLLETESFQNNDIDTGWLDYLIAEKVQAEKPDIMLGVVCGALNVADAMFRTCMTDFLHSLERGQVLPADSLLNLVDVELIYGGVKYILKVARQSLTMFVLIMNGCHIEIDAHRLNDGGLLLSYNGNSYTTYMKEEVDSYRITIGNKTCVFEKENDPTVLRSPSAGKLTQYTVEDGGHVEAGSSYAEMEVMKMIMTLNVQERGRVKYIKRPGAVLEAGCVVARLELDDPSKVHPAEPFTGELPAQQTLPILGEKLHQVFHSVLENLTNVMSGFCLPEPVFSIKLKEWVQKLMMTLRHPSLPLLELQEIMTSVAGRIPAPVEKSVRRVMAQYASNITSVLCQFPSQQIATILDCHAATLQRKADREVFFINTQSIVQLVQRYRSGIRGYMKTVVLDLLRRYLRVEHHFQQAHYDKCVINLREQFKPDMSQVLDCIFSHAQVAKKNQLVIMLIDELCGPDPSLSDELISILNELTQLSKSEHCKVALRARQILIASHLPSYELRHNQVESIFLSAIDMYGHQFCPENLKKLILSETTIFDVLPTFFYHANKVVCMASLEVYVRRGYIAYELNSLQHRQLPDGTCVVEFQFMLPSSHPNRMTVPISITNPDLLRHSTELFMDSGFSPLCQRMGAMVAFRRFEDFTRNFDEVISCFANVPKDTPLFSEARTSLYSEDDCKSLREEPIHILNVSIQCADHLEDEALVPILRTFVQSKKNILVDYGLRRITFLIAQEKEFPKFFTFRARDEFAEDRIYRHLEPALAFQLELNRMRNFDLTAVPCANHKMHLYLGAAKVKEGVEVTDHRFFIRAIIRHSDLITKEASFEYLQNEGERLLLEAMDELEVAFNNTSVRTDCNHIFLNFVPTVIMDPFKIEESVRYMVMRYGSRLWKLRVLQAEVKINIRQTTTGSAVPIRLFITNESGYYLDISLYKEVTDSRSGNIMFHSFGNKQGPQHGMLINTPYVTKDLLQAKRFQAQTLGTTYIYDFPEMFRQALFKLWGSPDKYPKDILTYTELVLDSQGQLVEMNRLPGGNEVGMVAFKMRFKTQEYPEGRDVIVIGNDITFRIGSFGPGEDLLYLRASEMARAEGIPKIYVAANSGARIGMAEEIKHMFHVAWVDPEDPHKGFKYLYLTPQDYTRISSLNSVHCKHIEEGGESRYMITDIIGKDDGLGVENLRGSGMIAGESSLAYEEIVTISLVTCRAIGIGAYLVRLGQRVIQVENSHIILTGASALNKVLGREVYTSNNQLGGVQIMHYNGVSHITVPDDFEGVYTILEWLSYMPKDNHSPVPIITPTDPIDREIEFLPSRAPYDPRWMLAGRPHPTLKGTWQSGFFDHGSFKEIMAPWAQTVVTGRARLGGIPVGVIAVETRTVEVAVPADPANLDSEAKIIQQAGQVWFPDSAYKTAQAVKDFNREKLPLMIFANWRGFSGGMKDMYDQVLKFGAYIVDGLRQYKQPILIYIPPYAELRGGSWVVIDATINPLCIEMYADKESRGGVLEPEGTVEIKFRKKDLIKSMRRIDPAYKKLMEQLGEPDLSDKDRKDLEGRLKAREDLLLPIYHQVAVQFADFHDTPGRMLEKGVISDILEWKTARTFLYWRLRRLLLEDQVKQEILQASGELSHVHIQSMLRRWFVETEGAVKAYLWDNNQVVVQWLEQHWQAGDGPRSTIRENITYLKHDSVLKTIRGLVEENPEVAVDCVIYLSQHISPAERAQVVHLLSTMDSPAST
row,Compound,IC50 [nM]
1,CNC(=O)Nc1sc2c(OC)cccc2c1C(=O)N1CCC(N2CCCC3(C2)C(=O)N2CCCCN2C3=O)CC1,6.1
2,CCNC(=O)Nc1sc2ccccc2c1C(=O)N1CCC(N2CCCC3(C2)C(=O)N2CCCCN2C3=O)CC1,23
3,CCN1C(=O)C2(CCCN(C3CCN(C(=O)c4c(NC(=O)NC)sc5ccccc45)CC3)C2)C(=O)N1CC,8.1
4,CCNC(=O)Nc1sc2c(OC)cccc2c1C(=O)N1CCC(N2CCCC3(C2)C(=O)N2CCCCN2C3=O)CC1,4.9
5,CCNC(=O)Nc1sc2ccccc2c1C(=O)N1CCC(N2CCCC3(C2)C(=O)N2CCCN2C3=O)CC1,33

# The remaining lines, values ahead:
row,IC50 [nM],Compound
1,5.9,COc1cccc2c(C(=O)N3CCC(N4CCCC5(C4)C(=O)N4CCCCN4C5=O)CC3)c(NC(N)=O)sc12
2,5.1,CCNC(=O)Nc1sc2ccccc2c1C(=O)N1CCC(N2CCCC3(C2)C(=O)N2CCCCCCN2C3=O)CC1
3,20,CCNC(=O)Nc1sc2ccccc2c1C(=O)N1CCC(N2CCCC3(C2)C(=O)N(C)N(C)C3=O)CC1
4,36,CNC(=O)Nc1sc2ccccc2c1C(=O)N1CCC(N2CCCC3(C2)C(=O)N2CCCCN2C3=O)CC1
5,8.7,CNC(=O)Nc1sc2ccccc2c1C(=O)N1CCC(N2CCCC3(C2)C(=O)N2CCCCCN2C3=O)CC1
6,7.5,CCNC(=O)Nc1sc2ccccc2c1C(=O)N1CCC(N2CCCC3(C2)C(=O)N2CCCCCN2C3=O)CC1

# Test system: Rattus norvegicus
# Assay: Antidyslipidemic activity in Wistar fatty rat assessed as reduction in respiratory quoteint at 1 mg/kg, po after 3 hrs
# Format: functional, organism-based
# Set-up: dose 1 mg/kg
# Conditions: not given
row,Compound,Activity
1,CCNC(=O)Nc1sc2c(OC)cccc2c1C(=O)N1CCC(N2CCCC3(C2)C(=O)N2CCCCN2C3=O)CC1,Active

# Biological target: Acetyl-CoA carboxylase 1 (Rattus norvegicus, UniProt P11497)
# Assay: Inhibition of rat ACC1
# Conditions: not given
row,IC50 [nM],Compound
1,28,CCNC(=O)Nc1sc2c(OC)cccc2c1C(=O)N1CCC(N2CCCC3(C2)C(=O)N2CCCCN2C3=O)CC1

# Test system: not listed separately
# Assay: Lipophilicity, log D of the compound by HPLC analysis at pH 7
# Format: physicochemical
# Conditions: buffer
row,Compound,logD
1,CNC(=O)Nc1sc2c(OC)cccc2c1C(=O)N1CCC(N2CCCC3(C2)C(=O)N2CCCCN2C3=O)CC1,2.08
2,CCNC(=O)Nc1sc2ccccc2c1C(=O)N1CCC(N2CCCC3(C2)C(=O)N2CCCCN2C3=O)CC1,2.45
3,CCN1C(=O)C2(CCCN(C3CCN(C(=O)c4c(NC(=O)NC)sc5ccccc45)CC3)C2)C(=O)N1CC,2.33
4,CCNC(=O)Nc1sc2c(OC)cccc2c1C(=O)N1CCC(N2CCCC3(C2)C(=O)N2CCCCN2C3=O)CC1,2.33
5,CCNC(=O)Nc1sc2ccccc2c1C(=O)N1CCC(N2CCCC3(C2)C(=O)N2CCCN2C3=O)CC1,1.93

# Now from value to compound:
row,logD,Compound
1,1.76,COc1cccc2c(C(=O)N3CCC(N4CCCC5(C4)C(=O)N4CCCCN4C5=O)CC3)c(NC(N)=O)sc12
2,2.73,CCNC(=O)Nc1sc2ccccc2c1C(=O)N1CCC(N2CCCC3(C2)C(=O)N2CCCCCCN2C3=O)CC1
3,2.03,CCNC(=O)Nc1sc2ccccc2c1C(=O)N1CCC(N2CCCC3(C2)C(=O)N(C)N(C)C3=O)CC1
4,2.14,CNC(=O)Nc1sc2ccccc2c1C(=O)N1CCC(N2CCCC3(C2)C(=O)N2CCCCN2C3=O)CC1
5,2.14,CNC(=O)Nc1sc2ccccc2c1C(=O)N1CCC(N2CCCC3(C2)C(=O)N2CCCCCN2C3=O)CC1
6,2.48,CCNC(=O)Nc1sc2ccccc2c1C(=O)N1CCC(N2CCCC3(C2)C(=O)N2CCCCCN2C3=O)CC1

# Test system: Rattus norvegicus
# Assay: Antidyslipidemic activity in po dosed Wistar fatty rat assessed as reduction in respiratory quoteint after 3 hrs
# Format: functional, organism-based
# Conditions: not given
row,Compound,Activity
1,CCNC(=O)Nc1sc2c(OC)cccc2c1C(=O)N1CCC(N2CCCC3(C2)C(=O)N2CCCCN2C3=O)CC1,Dose-dependent effect

# Test system: not listed separately
# Assay: Clearance in human liver microsomes assessed per mg of protein
# Format: ADME, Microsome
# Conditions: read-out: CLH
row,Compound,microsomal CLint [µL/min/mg]
1,CNC(=O)Nc1sc2c(OC)cccc2c1C(=O)N1CCC(N2CCCC3(C2)C(=O)N2CCCCN2C3=O)CC1,6
2,CCNC(=O)Nc1sc2ccccc2c1C(=O)N1CCC(N2CCCC3(C2)C(=O)N2CCCCN2C3=O)CC1,18
3,CCN1C(=O)C2(CCCN(C3CCN(C(=O)c4c(NC(=O)NC)sc5ccccc45)CC3)C2)C(=O)N1CC,120
4,CCNC(=O)Nc1sc2c(OC)cccc2c1C(=O)N1CCC(N2CCCC3(C2)C(=O)N2CCCCN2C3=O)CC1,35
5,CCNC(=O)Nc1sc2ccccc2c1C(=O)N1CCC(N2CCCC3(C2)C(=O)N2CCCN2C3=O)CC1,25

# Other lines, results leading:
row,microsomal CLint [µL/min/mg],Compound
1,15,COc1cccc2c(C(=O)N3CCC(N4CCCC5(C4)C(=O)N4CCCCN4C5=O)CC3)c(NC(N)=O)sc12
2,200,CCNC(=O)Nc1sc2ccccc2c1C(=O)N1CCC(N2CCCC3(C2)C(=O)N2CCCCCCN2C3=O)CC1
3,12,CCNC(=O)Nc1sc2ccccc2c1C(=O)N1CCC(N2CCCC3(C2)C(=O)N(C)N(C)C3=O)CC1
4,12,CNC(=O)Nc1sc2ccccc2c1C(=O)N1CCC(N2CCCC3(C2)C(=O)N2CCCCN2C3=O)CC1
5,71,CNC(=O)Nc1sc2ccccc2c1C(=O)N1CCC(N2CCCC3(C2)C(=O)N2CCCCCN2C3=O)CC1
6,100,CCNC(=O)Nc1sc2ccccc2c1C(=O)N1CCC(N2CCCC3(C2)C(=O)N2CCCCCN2C3=O)CC1

# Test system: not listed separately
# Assay: Inhibition of rat ACC2
# Conditions: not given
row,IC50 [nM],Compound
1,13,CCNC(=O)Nc1sc2c(OC)cccc2c1C(=O)N1CCC(N2CCCC3(C2)C(=O)N2CCCCN2C3=O)CC1

# Biological target: Acetyl-CoA carboxylase 1 (Homo sapiens, UniProt Q13085)
# Assay: Inhibition of human ACC1 using acetyl-coA as substrate incubated for 60 mins prior to substrate addition measured after 20 mins by malachite green assay
# Conditions: not given
row,Compound,IC50 [nM]
1,CNC(=O)Nc1sc2c(OC)cccc2c1C(=O)N1CCC(N2CCCC3(C2)C(=O)N2CCCCN2C3=O)CC1,25
2,CCNC(=O)Nc1sc2ccccc2c1C(=O)N1CCC(N2CCCC3(C2)C(=O)N2CCCCN2C3=O)CC1,130
3,CCN1C(=O)C2(CCCN(C3CCN(C(=O)c4c(NC(=O)NC)sc5ccccc45)CC3)C2)C(=O)N1CC,41
4,CCNC(=O)Nc1sc2c(OC)cccc2c1C(=O)N1CCC(N2CCCC3(C2)C(=O)N2CCCCN2C3=O)CC1,21
5,CCNC(=O)Nc1sc2ccccc2c1C(=O)N1CCC(N2CCCC3(C2)C(=O)N2CCCN2C3=O)CC1,170

# The next lines start with the values.
row,IC50 [nM],Compound
1,22,COc1cccc2c(C(=O)N3CCC(N4CCCC5(C4)C(=O)N4CCCCN4C5=O)CC3)c(NC(N)=O)sc12
2,22,CCNC(=O)Nc1sc2ccccc2c1C(=O)N1CCC(N2CCCC3(C2)C(=O)N2CCCCCCN2C3=O)CC1
3,120,CCNC(=O)Nc1sc2ccccc2c1C(=O)N1CCC(N2CCCC3(C2)C(=O)N(C)N(C)C3=O)CC1
4,200,CNC(=O)Nc1sc2ccccc2c1C(=O)N1CCC(N2CCCC3(C2)C(=O)N2CCCCN2C3=O)CC1
5,48,CNC(=O)Nc1sc2ccccc2c1C(=O)N1CCC(N2CCCC3(C2)C(=O)N2CCCCCN2C3=O)CC1
6,43,CCNC(=O)Nc1sc2ccccc2c1C(=O)N1CCC(N2CCCC3(C2)C(=O)N2CCCCCN2C3=O)CC1
